{
  "source": "patent US20250325553A1",
  "about": "“METHODS OF TREATING CANCER” (FOGHORN THERAPEUTICS INC., priority 2022, published 2025)",
  "key": {"[1]": {"test": "Phase 1 dose escalation clinical trial, preliminary pharmacokinetics", "assay_type": "in vivo", "conditions": "preliminary PK analysis", "description": "(§1) A Phase 1 dose escalation clinical trial of Compound A is conducted. The trial is primarily intended to determine the maximum tolerated dose (MTD) and/or recommended phase 2 dose of the compound when administered orally to subjects with metastatic uveal melanoma.\n(§2) In this ongoing study, Compound A has been administered at dose levels of 2.5 mg once a day (QD), 5 mg QD, 7.5 mg QD, and 10 mg QD to 17 subjects with metastatic uveal melanoma."}, "[2]": {"test_system": "subjects with metastatic uveal melanoma", "test": "Phase 1 dose escalation clinical trial, dose limiting toxicity", "assay_type": "in vivo", "conditions": "one subject treated at the 7.5 mg dose; improved with a dose hold", "description": "as §1, §2"}, "[3]": {"test_system": "metastatic uveal melanoma", "test": "Phase 1 dose escalation clinical trial, tumor response", "assay_type": "in vivo, human", "conditions": "2.5-10 mg QD oral, 17 subjects with metastatic uveal melanoma", "description": "as §1, §2"}, "[4]": {"test": "Population PK model of orally administered Compound A patient data", "assay_type": "in vivo, human", "description": "A population PK model based on orally administered Compound A dosing data in a total of 10 patients with metastatic uveal melanoma (UM) and advanced hematologic malignancies (e.g., acute myeloid leukemia (AML)) was performed.\nNonlinear mixed-effects models were fitted to concentration vs. time data of FHD-286. Various compartmental models with linear elimination (1-, 2- and 3-compartment), absorption models, structures of omega on clearances, volumes and absorption parameters (diagonal and block) were developed to assess the PK of Compound A.\nOverall, a two-compartment model with linear elimination, a zero-order oral absorption, and a lag time of absorption adequately characterized the concentration-time profiles of Compound A.\nExploratory analysis of covariate effects was performed with appropriate plots presenting relationships between the ETAs (e.g., values reflecting the difference between and individual's parameter value and that of the population) of PK parameters to identify any remaining covariate trends. […] Therefore a “Multiple Dose Effect” on CL was included in the model to account for this change over time.\nNo other covariates were included as part of the model."}},
  "note": "Like-named read-outs stand apart in the source and are kept apart here.",
  "data": [
    {"compound": "COC[C@H](NC(=O)c1ccn(S(C)(=O)=O)c1)C(=O)Nc1nc(-c2cccc(N3C[C@@H](C)O[C@@H](C)C3)n2)cs1", "note": "[Compound A, N-(1-((4-(6-(2,6-dimethylmorpholino)pyridin-2-yl)thiazol-2-yl)amino)-3-methoxy-1-oxopropan-2-yl)-1-(methylsulfonyl)-1H-pyrrole-3-carboxamide]", "values": [
      {"measurement": "half-life", "setting": "[1]; oral 2.5, 5, 7.5, 10 mg QD, subjects with metastatic uveal melanoma", "result": "long half-life"},
      {"measurement": "plasma concentrations of the compound", "setting": "[1]; oral 2.5-10 mg QD dose levels", "result": "increase with increasing dose"},
      {"measurement": "dose limiting toxicity", "setting": "[2]", "result": "Grade 3 keratitis"},
      {"measurement": "tumor response", "setting": "[3]", "result": "Stable disease and reductions in tumor burden"},
      {"measurement": "clearance (CL) over time", "setting": "[4]; after multiple doses", "result": "reduction in clearance"},
      {"measurement": "Vc, Estimate", "setting": "[4]; final PK model parameter", "result": 54.6, "unit": "L"},
      {"measurement": "Tlag, Estimate", "setting": "[4]; final PK model parameter, lag time of absorption", "result": 0.452, "unit": "h"},
      {"measurement": "Dur, Estimate", "setting": "[4]; final PK model parameter, zero-order oral absorption, two-compartment model, 10 patients (UM, AML)", "result": 1.77, "unit": "h"},
      {"measurement": "clearance", "setting": "[4]; human, in vivo, oral, final PK model parameter, linear elimination, read-out: CL, Estimate (converted)", "result": 67.8, "unit": "mL/min"},
      {"measurement": "clearance", "setting": "[4]; human, in vivo, oral, final PK model parameter, read-out: CLp, Estimate (converted)", "result": 510, "unit": "mL/min"},
      {"measurement": "Vd", "setting": "[4]; human, in vivo, oral, final PK model parameter, read-out: Vd, Estimate", "result": 165, "unit": "L"}
    ]}
  ]
}
